According to patent US12287332B2, “Test cartridges” (First Light Diagnostics, Inc., priority 2018, dated 2025):
Converted amounts (≈) assume the structure as drawn.

Key:
Assay type in all cases: cell-based
[1] = tested on: K. pneumoniae strain in clinical urine sample BIUR0084; assay: Automated MultiPath AST cartridge on clinical urine, Example 8; conditions: 4 h growth, fold growth value of 2, matched CLSI broth microdilution
[2] = tested on: K. pneumoniae CDC0126; assay: Novel rapid AST (4 h differential growth, FISH cell counting) in urine matrix, Example 7; conditions: Klebsiella pneumoniae, 4 h growth, fold-growth threshold 20, read-out: MIC generated by novel rapid AST method
Procedure: Bacterial cell preparation: 50 bacterial strains with known resistance profiles were collected from either the ATCC or from the CDC antibiotic resistance bank (AR bank) and are shown in Table A. Bacterial cultures for each of these were obtained by inoculating Trypticase Soy Broth (TSB, Hardy Diagnostics cat. U65) with 3 to 5 colonies from fresh tryptic soy agar plates (TSA, BD cat. 221185) and growing for 1.5 to 3 hours at 35° C. to achieve log-phase growth. Using optical density at 600 nm to estimate cell concentration, each culture was diluted to approximately 5×10^6 colony-forming units (CFU)/mL in cation-adjusted Mueller Hinton II (MHBII, Teknova cat. M5860).
A reaction mixture was prepared consisting of 30 μL processed urine, 10 μL of the 5×10^6 CFU/mL bacterial dilution, 60 μL MHBII (1× final concentration in 100 μL) and the appropriate species-specific Alexa647N-labeled DNA oligonucleotide FISH probe and its associated unlabeled DNA helper probes for the target bacterial species. […] 10 μL of the prepared magnetic particle mixture was then added to the well. […]
Four Hour Growth: While the time zero cell quantification was occurring, 12 μL of prepared bacterial culture, 36 uL pooled human urine processed as done for the assay time zero, 60 uL of 2×MHB II (Teknova, cat. #M5860) and 2 uL water was added to each well of the prepared antibiotic plate. […]

[3] = tested on: E. coli ATCC 25922; assay: Novel 4.5-hour AST in presence of beta-lactamase producing K. pneumoniae, Example 11; conditions: Escherichia coli, ATCC25922, 4.5 h; sensitive E. coli strain; increasing amounts of beta-lactamase producing K. pneumoniae; read-out: MIC, novel 4.5-hour AST method
Procedure: Experimental procedure. Preparation of Antibiotic Plates: Antibiotic plates prepared as described in Impact of Non-Sterile Sample on Target MIC example.
E. coli was diluted to 5×10^5 CFU/mL (CLSI standard concentration) while K. pneumoniae was diluted to various inoculum (ranging from 1×10^6 and 5×10^8 CFU/mL).
30 μL of each processed urine was added to 70 μL of 1× cation-adjusted Mueller-Hinton Broth (MHBII) containing species-specific Alexa647N-labeled DNA oligonucleotide FISH probes and unlabeled DNA helper probes. […] 10 μL of the prepared magnetic particle mixture was then added to the well.
Four-Hour Growth: The E. coli was tested in the presence of varying inoculum of K. pneumoniae-OXA for susceptibility against 2 antimicrobial agents: Imipenem and Meropenem.
100 μL of each well of the incubated sample-antibiotic plate was transferred to a corresponding well of a dehydrated buffer plate and combined with FISH probes, helper probes, magnetic particles, and focus particles in the same manner as described above for assay time zero.
All data was then compared to CLSI standard BMD.

Compound | sensitive/resistant call by MultiPath [1] | also measured
Cc1nnc(SCC2=C(C(=O)O)N3C(=O)[C@@H](NC(=O)Cn4cnnn4)[C@H]3SC2)s1 [Cefazolin] | resistant | 
O=C(O)c1cn(C2CC2)c2cc(N3CCNCC3)c(F)cc2c1=O [Ciprofloxacin] |  | MIC [2]: 0.25 µg/mL (≈ 0.754 µM)
C[C@@H](O)[C@H]1C(=O)N2C(C(=O)O)=C(SCCN=CN)C[C@H]12 [Imipenem] |  | MIC [3]: < 1 µg/mL
Trimethoprim/Sulfamethoxazole | resistant | 
